Reference: ChEMBL document CHEMBL2346656, “Anti-hepatitis B virus lignans from the root of Streblus asper” (Bioorg Med Chem Lett, 2013)

Tests used:
[1] = Cytotoxicity against human HepG2(2.2.15) cells after 12 days by MTT assay; format: cell-based
Hepatitis B virus [2] = test: Antiviral activity against Hepatitis B virus infected in human HepG2.2.15 cells assessed as inhibition of HBV DNA replication after 72 hrs by PCR analysis; format: functional, organism-based; conditions: HepG2 2.2.15, 72 h
Hepatitis B virus [3] = test: Antiviral activity against Hepatitis B virus infected in human HepG2.2.15 cells assessed as inhibition of HBeAg secretion after 12 days by ELISA; format: functional, organism-based; conditions: HepG2 2.2.15, 288 h
Hepatitis B virus [4] = test: Antiviral activity against Hepatitis B virus infected in human HepG2.2.15 cells assessed as inhibition of HBsAg secretion after 12 days by ELISA; format: functional, organism-based; conditions: HepG2 2.2.15, 288 h
[5] = Selectivity index, ratio of CC50 for human HepG2(2.2.15) cells to IC50 for Hepatitis B virus infected in human HepG2.2.15 cells by HBsAg secretion inhibition assay; format: functional
[6] = Selectivity index, ratio of CC50 for human HepG2(2.2.15) cells to IC50 for Hepatitis B virus infected human HepG2.2.15 cells by DNA replication assay; format: functional
[7] = Selectivity index, ratio of CC50 for human HepG2(2.2.15) cells to IC50 for Hepatitis B virus infected in human HepG2.2.15 cells assessed as HBeAg secretion inhibition assay; format: functional

Compound	IC50 (Hepatitis B virus [2]) [µM]	IC50 (Hepatitis B virus [3]) [µM]	IC50 (Hepatitis B virus [4]) [µM]	CC50 at 288 h [1] [µM]	Ratio CC50/IC50 [5]	Ratio CC50/IC50 [6]	Ratio CC50/IC50 [7]
C=CCc1ccc2c(c1)-c1cc([C@@H](O)[C@H](C)O)ccc1Oc1ccc(CC=C)cc1-c1cc([C@@H](O)[C@H](C)O)ccc1O2 [(7'R,8'S,7'R,8'S)-ERYTHRO-STREBLUSLIGNANOL G]	9.02	3.24	1.58	118	74.9	13.12	36.52
COc1cc([C@H]2Oc3c(OC)cc(CCCO)cc3[C@@H]2CO)ccc1O [DIHYDRODEHYDRODICONIFERY ALCOHOL]	> 1000	> 1000	> 1000	180	–	–	–
C=CCc1ccc(Oc2ccc(C=O)cc2O)cc1 [ISOMAGNALDEHYDE]	> 1000	86.7	162	186	1.14	–	2.14
C=CCc1ccc(Oc2ccc(/C=C/C=O)cc2)c(O)c1 [ISOSTREBLUSLIGNANALDEHYDE]	61.2	10.5	12.2	200	16.46	3.27	19.11
C=CCc1ccc(O)c(-c2cc(C=O)ccc2O)c1 [MAGNALDEHYDE]	> 1000	41.4	109	200	1.84	–	4.83
C=CCc1ccc(Oc2cc(CC=C)cc(O)c2O)cc1 [OBOVATOL]	–	–	–	180	–	–	–
C=CCc1ccc(O)c(-c2cc(O)ccc2O)c1 [RANDAIOL]	> 1000	30.2	162	201	1.23	–	6.63
C=CCc1ccc(O)c(-c2cc([C@@H](O)[C@@H](C)O)ccc2O)c1 [STREBLUSLIGNANOL]	> 1000	147	> 1000	200	–	–	1.36

Further lines, with some results ahead:

IC50 (Hepatitis B virus [2]) [µM]	IC50 (Hepatitis B virus [3]) [µM]	IC50 (Hepatitis B virus [4]) [µM]	Compound	CC50 at 288 h [1] [µM]	Ratio CC50/IC50 [5]	Ratio CC50/IC50 [6]	Ratio CC50/IC50 [7]
> 1000	> 1000	> 1000	C=CCc1ccc(O[C@@H]2O[C@H](CO)[C@@H](O)[C@H](O)[C@H]2O)c(-c2cc(C[C@@H](O)CO)ccc2O)c1	190	–	–	–
17.7	26.7	6.98	COc1cc(C2c3cc(O)c(OC)cc3C[C@@H](CO)[C@@H]2CO[C@@H]2OC[C@@H](O)[C@H](O)[C@H]2O)ccc1O (stereo partly specified)	210	30.15	11.9	7.87
> 1000	> 1000	> 1000	COc1cc([C@H]2Oc3c(OC)cc(/C=C/C(=O)O)cc3[C@@H]2CO)ccc1O [GLYCOSMISIC ACID]	200	–	–	–
12.7	14.7	3.67	COc1cc([C@H]2c3cc(O)c(OC)cc3C[C@@H](CO)[C@@H]2CO)ccc1O [ISOLARICIRESINOL]	129	35.28	10.18	8.82
12.9	8.83	10.3	C=CCc1ccc(Oc2cc(CC=C)ccc2O)cc1 [ISOMAGNOLOL]	196	18.91	15.13	22.14
99.5	176	141	Nc1ccn([C@@H]2CS[C@H](CO)O2)c(=O)n1 [LAMIVUDINE]	391	2.77	3.93	2.22
> 1000	> 1000	> 1000	C=CCc1ccc(O)c(-c2cc(C[C@@H](O)CO)ccc2O)c1 [MAGNOLIGNAN A]	176	–	–	–
8.67	3.76	2.03	C=CCc1ccc(O)c(-c2cc(CC=C)ccc2O)c1 [MAGNOLOL]	63.7	31.37	7.34	16.94
11.6	43.2	56.9	C=CCc1ccc(O)c(-c2cc([C@H]3O[C@H](c4ccc(O)c(-c5cc(CC=C)ccc5O)c4)[C@@H](C)O[C@@H]3C)ccc2O)c1 [STREBLUSLIGNANOL F]	137	2.41	11.87	3.17
